Results on 25 compounds are retold here after patent US20230271954A1 (Gossamer Bio Services, Inc., priority 2020, published 2023).

The target in test [1] is T1, DGKζ (Homo sapiens, UniProt Q13574).
T1 construct: purchased Carna 12-110
In words: DGKζ biochemical assay (ADP-Glo). The conditions noted are these: read-out: DGK ζ IC50. A general note: ADP-Glo turns the ADP formed in a reaction into a luminescent signal.

The target of test [2] is DGKα (Homo sapiens, UniProt P23743). In words: DGKα biochemical assay (ADP-Glo). The conditions noted are these: read-out: DGK α IC50. Summed up:
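ADP-Glo kinase assay using OAG/PS (1:2) lipid substrate, sonicated, in HEPES pH 7.0 buffer with MgCl2, CaCl2, DTT, BSA, Triton X-100. Enzyme preincubated with compound 30 min at RT; substrate with ATP (DGKα: 400 μM) added, 45 min RT. Luminescence read; % inhibition vs DMSO and no-enzyme controls.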

A value given as a limit tells only on which side of the number the result lay.

T1 sequence (Q13574 1-929 isoform Q13574-4): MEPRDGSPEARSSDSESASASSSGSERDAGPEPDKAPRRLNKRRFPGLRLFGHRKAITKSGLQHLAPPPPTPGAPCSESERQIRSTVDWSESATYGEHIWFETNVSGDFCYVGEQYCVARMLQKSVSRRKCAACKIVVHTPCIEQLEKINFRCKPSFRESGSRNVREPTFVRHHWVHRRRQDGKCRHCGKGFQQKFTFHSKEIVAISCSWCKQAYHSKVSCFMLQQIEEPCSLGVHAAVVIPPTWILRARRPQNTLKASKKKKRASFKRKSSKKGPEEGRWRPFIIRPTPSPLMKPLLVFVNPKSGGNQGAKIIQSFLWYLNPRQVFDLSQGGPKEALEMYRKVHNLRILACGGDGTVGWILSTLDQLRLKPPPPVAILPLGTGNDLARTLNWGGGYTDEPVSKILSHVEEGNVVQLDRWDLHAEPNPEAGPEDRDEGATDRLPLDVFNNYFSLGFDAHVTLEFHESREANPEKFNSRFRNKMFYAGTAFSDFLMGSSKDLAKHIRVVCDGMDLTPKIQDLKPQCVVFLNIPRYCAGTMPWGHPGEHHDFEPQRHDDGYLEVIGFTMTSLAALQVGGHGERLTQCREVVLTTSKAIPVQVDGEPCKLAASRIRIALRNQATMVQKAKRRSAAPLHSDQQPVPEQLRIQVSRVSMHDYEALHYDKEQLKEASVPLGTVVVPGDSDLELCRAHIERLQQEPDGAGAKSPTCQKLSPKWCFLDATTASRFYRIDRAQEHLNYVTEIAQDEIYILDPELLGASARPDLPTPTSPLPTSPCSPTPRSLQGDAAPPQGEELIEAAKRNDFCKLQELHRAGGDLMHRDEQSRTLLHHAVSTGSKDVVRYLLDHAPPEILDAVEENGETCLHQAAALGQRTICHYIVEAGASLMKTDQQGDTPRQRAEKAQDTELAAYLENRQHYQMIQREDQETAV
Chain of DGKα (P23743 whole entry): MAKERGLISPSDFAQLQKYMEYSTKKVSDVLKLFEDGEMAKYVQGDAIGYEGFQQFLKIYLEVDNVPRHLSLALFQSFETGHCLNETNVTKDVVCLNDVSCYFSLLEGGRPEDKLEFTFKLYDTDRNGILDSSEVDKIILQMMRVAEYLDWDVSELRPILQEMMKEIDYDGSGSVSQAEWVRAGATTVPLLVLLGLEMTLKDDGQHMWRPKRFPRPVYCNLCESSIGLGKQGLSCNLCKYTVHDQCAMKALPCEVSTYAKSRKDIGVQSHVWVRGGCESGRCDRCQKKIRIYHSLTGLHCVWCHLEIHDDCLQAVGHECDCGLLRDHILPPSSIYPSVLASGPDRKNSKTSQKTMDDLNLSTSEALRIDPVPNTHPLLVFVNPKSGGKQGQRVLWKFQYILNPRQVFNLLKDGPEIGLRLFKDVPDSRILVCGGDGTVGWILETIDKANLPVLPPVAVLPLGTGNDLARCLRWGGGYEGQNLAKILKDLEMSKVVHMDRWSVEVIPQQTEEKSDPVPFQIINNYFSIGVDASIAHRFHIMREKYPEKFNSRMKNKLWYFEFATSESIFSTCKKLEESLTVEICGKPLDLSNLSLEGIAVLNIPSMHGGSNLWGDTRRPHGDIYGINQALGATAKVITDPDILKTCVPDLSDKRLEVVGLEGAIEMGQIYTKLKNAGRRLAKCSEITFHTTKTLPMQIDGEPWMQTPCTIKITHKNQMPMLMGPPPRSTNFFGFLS

The term IC50 denotes the concentration at which inhibition is half-maximal. Regarding `Cn1c(=O)c(C#N)c(N(C)[C@H]2CC[C@H](N(c3ccc(F)cc3)C3CCC3)CC2)c2nc(C#N)ccc21` [Example 19], the IC50 in test [1] and in test [2] was 0.1 to 1 µM each time.

Regarding `CN(c1c(C#N)c(=O)n(C)c2ccc(C#N)nc12)C1CCC(N(CC2CCC2)c2ccc(CN3CCOCC3)cc2)CC1` (single isomer, unassigned) [Example 190, (cis or trans)-8-((4-((cyclobutylmethyl)(4-(morpholinomethyl)phenyl)amino)cyclohexyl) (methyl)amino)-5-methyl-6-oxo-5,6-dihydro-1,5-naphthyridine-2,7-dicarbonitrile], the IC50 is ≥ 1 µM in test [1] and 0.01 to 0.1 µM in test [2].

Consider `Cn1c(=O)c(C#N)c(N(C)[C@H]2CC[C@H](N(CC3CCC3)c3ccc(F)cc3C3CC3)CC2)c2nc(C#N)ccc21` [Example 127, trans-8-((-4-((cyclobutylmethyl)(2-cyclopropyl-4-fluorophenyl)amino)cyclohexyl)(methyl)amino)-5-methyl-6-oxo-5,6-dihydro-1,5-naphthyridine-2,7-dicarbonitrile], for which the 50% inhibitory concentration (IC50) in test [1] lay within 0.01 to 0.1 µM; in test [2], 0.1 to 1 µM.

On to `Cc1c(F)cccc1N(CC1CC1)[C@H]1CC[C@H](N(C)c2c(C#N)c(=O)n(C)c3ccc(C#N)nc23)CC1` [Example 107, trans-8-((4-((cyclopropylmethyl)(3-fluoro-2-methylphenyl)amino)cyclohexyl)(methyl)amino)-5-methyl-6-oxo-5,6-dihydro-1,5-naphthyridine-2,7-dicarbonitrile], for which the IC50 in test [1] is 0.1 to 1 µM; in test [2] it was ≥ 1 µM.

`Cn1c(=O)c(C#N)c(N(C)[C@H]2CC[C@H](N(CC3CCC3)c3ccc4c(c3)OCCO4)CC2)c2nc(C#N)ccc21` [Example 171, trans-8-((4-((cyclobutylmethyl)(2,3-dihydrobenzo[b] [1,4]dioxin-6-yl)amino)cyclohexyl)(methyl)amino)-5-methyl-6-oxo-5,6-dihydro-1,5-naphthyridine-2,7-dicarbonitrile]: the IC50 in test [1] and in test [2] was 0.1 to 1 µM each time.

On to `CN(c1c(C#N)c(=O)n(C)c2ccc(Cl)nc12)C1CCC(N(CC2CCC2)c2ccc(CN3CCOCC3)cc2)CC1` (single isomer, unassigned) [Example 191, (cis or trans)-6-chloro-4-((4-((cyclobutylmethyl)(4-(morpholinomethyl)phenyl)amino)cyclohexyl) (methyl)amino)-1-methyl-2-oxo-1,2-dihydro-1,5-naphthyridine-3-carbonitrile], for which the figures for the IC50 in test [1] and in test [2] were ≥ 1 µM and 0.01 to 0.1 µM, respectively.

As for `Cc1cc(N(CC2CC2)[C@H]2CC[C@H](N(C)c3c(C#N)c(=O)n(C)c4ccc(C#N)nc34)CC2)ccc1F` [Example 125, trans-8-((4-((cyclopropylmethyl)(4-fluoro-3-methylphenyl)amino)cyclohexyl)(methyl)amino)-5-methyl-6-oxo-5,6-dihydro-1,5-naphthyridine-2,7-dicarbonitrile], the IC50 in test [1] and in test [2] was 0.1 to 1 µM in each case.

Turning to `Cc1ccc(N(CC2CCOC2)[C@H]2CC[C@@H](N(C)c3cc(=O)n(C)c4ccc(C#N)nc34)CC2)cc1OC(F)F` (stereo partly drawn) [Example 162, cis-8-((-4-((3-(difluoromethoxy)-4-methylphenyl) ((tetrahydrofuran-3-yl)methyl)amino)cyclohexyl) (methyl)amino)-5-methyl-6-oxo-5,6-dihydro-1,5-naphthyridine-2-carbonitrile], the concentration for half-maximal inhibition (IC50) in test [1] and in test [2] was 0.1 to 1 µM throughout.

Regarding `Cc1cc2c(cc1N(CC1CCC1)[C@H]1CC[C@H](N(C)c3c(C#N)c(=O)n(C)c4ccc(C#N)nc34)CC1)OCO2` [Example 146, trans-8-((4-((cyclobutylmethyl)(6-methylbenzo[d] [1,3]dioxol-5-yl)amino)cyclohexyl)(methyl)amino)-5-methyl-6-oxo-5,6-dihydro-1,5-naphthyridine-2,7-dicarbonitrile], the IC50 in test [1] and in test [2] was 0.1 to 1 µM in each case.

As to `Cc1cc(F)ccc1N(CC1CC1)[C@H]1CC[C@@H](N(C)c2cc(=O)n(C)c3ccc(C#N)nc23)CC1` [Example 144, cis-8-((4-((cyclopropylmethyl)(4-fluoro-2-methylphenyl)amino)cyclohexyl)(methyl)amino)-5-methyl-6-oxo-5,6-dihydro-1,5-naphthyridine-2-carbonitrile], the IC50 in test [1] and in test [2] was 0.1 to 1 µM each time.

As for `Cn1c(=O)c(C#N)c(N(C)[C@H]2CC[C@@H](N(CC3CC3)c3ccc(Cl)cc3)CC2)c2nc(C#N)ccc21` [Example 35, cis-8-((4-((4-chlorophenyl)(cyclopropylmethyl)amino)cyclohexyl)(methyl)amino)-5-methyl-6-oxo-5,6-dihydro-1,5-naphthyridine-2,7-dicarbonitrile], the IC50 in test [1] was ≥ 1 µM; in test [2], < 0.01 µM.

Regarding `Cn1c(=O)cc(N(C)[C@H]2CC[C@@H](N(CC3CC3)c3ccc4c(c3)OCO4)CC2)c2nc(C#N)ccc21` [Example 75], the IC50 is ≥ 1 µM in test [1] and 0.01 to 0.1 µM in test [2].

Regarding `Cc1ccccc1N(CC1CC1)[C@H]1CC[C@H](N(C)c2cc(=O)n(C)c3ccc(C#N)nc23)CC1` [Example 70, trans-8-((4-((cyclopropylmethyl)(o-tolyl)amino)cyclohexyl)(methyl)amino)-5-methyl-6-oxo-5,6-dihydro-1,5-naphthyridine-2-carbonitrile], the IC50 in test [1] is 0.1 to 1 µM; in test [2], ≥ 1 µM.

Consider `Cn1c(=O)cc(N(C)[C@H]2CC[C@@H](N(CC3CC3)c3ccc(F)c(OC4CC4)c3)CC2)c2nc(C#N)ccc21` [Example 122, cis-8-((-4-((3-cyclopropoxy-4-fluorophenyl) (cyclopropylmethyl)amino)cyclohexyl)(methyl)amino)-5-methyl-6-oxo-5,6-dihydro-1,5-naphthyridine-2-carbonitrile], for which the IC50 in test [1] and in test [2] was 0.1 to 1 µM each time.

With `Cc1cc(F)cc(N(CC2CC2)[C@H]2CC[C@H](N(C)c3c(C#N)c(=O)n(C)c4ccc(C#N)nc34)CC2)c1` [Example 87], the IC50 in test [1] and in test [2] was 0.1 to 1 µM each time.

On to `Cc1ccc2c(c1)c(N1CCC(N(CC3CC3)c3ccccc3)CC1)cc1nncn12` [Example 1F, N-(Cyclopropylmethyl)-1-(7-methyl-[1,2,4]triazolo[4,3-a]quinolin-5-yl)-N-phenylpiperidin-4-amine], for which the IC50 in test [1] is ≥ 1 µM; in test [2], 0.01 to 0.1 µM.

Consider `Cc1c(F)cccc1N(CC1CC1)[C@H]1CC[C@H](N(C)c2c(C#N)c(=O)n(C)c3ccc(Cl)nc23)CC1` [Example 105, trans-6-chloro-4-((4-((cyclopropylmethyl)(3-fluoro-2-methylphenyl)amino)cyclohexyl)(methyl)amino)-1-methyl-2-oxo-1,2-dihydro-1,5-naphthyridine-3-carbonitrile], for which the IC50 was 0.1 to 1 µM in test [1] and ≥ 1 µM in test [2].

On to `COc1cc(F)ccc1N(CC1CC1)[C@H]1CC[C@@H](N(C)c2c(C#N)c(=O)n(C)c3cccnc23)CC1` [Example 9, cis-4-((4-((cyclopropylmethyl)(4-fluoro-2-methoxyphenyl)amino)cyclohexyl)(methyl)amino)-1-methyl-2-oxo-1,2-dihydro-1,5-naphthyridine-3-carbonitrile], for which the IC50 in test [1] and in test [2] was ≥ 1 µM throughout.

For the compound `COc1cc(F)ccc1N(C)[C@H]1CC[C@H](N(C)c2c(C#N)c(=O)n(C)c3ccc(C#N)nc23)CC1` [Example 46, trans-8-((4-((4-fluoro-2-methoxyphenyl)(methyl)amino)cyclohexyl)(methyl)amino)-5-methyl-6-oxo-5,6-dihydro-1,5-naphthyridine-2,7-dicarbonitrile], the values for the half-inhibitory concentration (IC50) in test [1] and in test [2] were 0.01 to 0.1 µM and 0.1 to 1 µM, respectively.

As to `Cn1c(=O)c(C#N)c(N(C)[C@H]2CC[C@@H](N(CC3COCCO3)c3ccc(F)cc3)CC2)c2nc(C#N)ccc21` (stereo partly drawn) [Example 141, cis-8-((-4-(((1,4-dioxan-2-yl)methyl)(4-fluorophenyl)amino)cyclohexyl)(methyl)amino)-5-methyl-6-oxo-5,6-dihydro-1,5-naphthyridine-2,7-dicarbonitrile], the IC50 in test [1] is 0.01 to 0.1 µM; in test [2], < 0.01 µM.

For the compound `Cn1c(=O)cc(N(C)[C@H]2CC[C@@H](N(CC3CC3)c3cc(F)cc(F)c3)CC2)c2nc(C#N)ccc21` [Example 82], the figures for the IC50 in test [1] and in test [2] were 0.1 to 1 µM and 0.01 to 0.1 µM, respectively.

With `CN1C(=O)CN([C@H]2CC[C@H](N(c3ccccc3O)C3CC3)CC2)c2nc(C#N)ccc21` [Example 2B, 4-(trans-4-(Cyclopropyl(2-hydroxyphenyl)amino)cyclohexyl)-1-methyl-2-oxo-1,2,3,4-tetrahydropyrido[3,2-b]pyrazine-6-carbonitrile], the figures for the IC50 in test [1] and in test [2] were ≥ 1 µM and 0.1 to 1 µM, respectively.

On to `CC(C)CN(c1ccnn1C)[C@H]1CC[C@H](N(C)c2c(C#N)c(=O)n(C)c3ccc(C#N)nc23)CC1` [Example 176, trans-8-((-4-(isobutyl(1-methyl-1H-pyrazol-5-yl)amino)cyclohexyl)(methyl)amino)-5-methyl-6-oxo-5,6-dihydro-1,5-naphthyridine-2,7-dicarbonitrile], for which the IC50 in test [1] and in test [2] was ≥ 1 µM throughout.

As for `Cc1ccc(N(CC2CC2)[C@H]2CC[C@H](N(C)c3c(C#N)c(=O)n(C)c4ccc(C#N)nc34)CC2)cc1` [Example 128, trans-8-((-4-((cyclopropylmethyl)(p-tolyl)amino)cyclohexyl)(methyl)amino)-5-methyl-6-oxo-5,6-dihydro-1,5-naphthyridine-2,7-dicarbonitrile], the IC50 in test [1] and in test [2] was 0.1 to 1 µM throughout.

As for `Cn1c(=O)c(C#N)c(N2CCC(N(CC3CC3)c3ccccc3O)CC2)c2nc(Cl)ccc21` [Example 1E, 6-Chloro-4-(4-((cyclopropylmethyl)(2-hydroxyphenyl)amino)piperidin-1-yl)-1-methyl-2-oxo-1,2-dihydro-1,5-naphthyridine-3-carbonitrile], the IC50 is ≥ 1 µM in test [1] and 0.01 to 0.1 µM in test [2].
